Results reported in publication PMC12036875, “Mitochondria-targeting natural product rhein conjugated with dichloroacetate as the dual inhibitor of glycolysis and oxidative phosphorylation to off energize cancer cells and induce ROS storm” (Theranostics, 2025).
Read-outs that look alike come from different tables or passages of the source.

What was measured:
4T1 cells [1] = assay: Intracellular ATP detection; format: cell-based, Mouse; settings: 6.25 μM, vs control
Experimental: Rhein-DCA conjugate achieved synergetic fatal energy depletion in tumor cells.
The intracellular ATP content was measured with PhosphoWorks™ Colorimetric ATP Assay Kit. Specifically, 4T1 cells and 293T cells were seeded in 12-well plates at a density of 2 × 10^5 cells per well and further cultured for 24 h at 37 °C in an atmosphere of 95% air and 5% CO2. For the control group, the culture medium was replaced with fresh medium. For the rhein, DCA, R + D, and Rhein-DCA groups, the medium was replaced with fresh medium containing the indicated drugs at a concentration of 6.25 μM. It should be noted that in the Rhein-DCA + CsA group, the cells were pretreated with CsA (2.5 μM) for 1 h at 37 °C before being cultured with Rhein-DCA. The cells were collected and suspended in 80 μL triton-X-100 (1% in PBS) to obtain cell lysates by twice freeze-thaw. Then the supernatant was collected after centrifugation at 9391 G for 10 min for subsequent analysis. Finally, 50 μL of supernatant was separately mixed evenly with 50 μL ATP working solution and the mixture was incubated for 30 min at room temperature. The absorbance at 570 nm was monitored with microplate reader.

CT26 cells = assay: MTT cytotoxicity assay; format: cell-based; settings: Mus musculus, CT26, 72 h, read-out: IC50 CT26
Experimental: (§1) The cytotoxicity of Rhein-DCA conjugate was performed on various cancer cell lines, including breast cancer (4T1 and MCF-7), cervical cancer (HeLa), and colorectal carcinoma (CT26) via 3-(4,5)-dimethylthiahiazo(-z-y1)-3,5-di-phenytetrazoliumromide (MTT) assay. […] Moreover, the cytotoxicity of these compounds (rhein, DCA, R + D and Rhein-DCA) for normal cells (293T) was lower than that of those tested cancer cells.
(§2) Mouse breast cancer 4T1 cells and Mouse colorectal carcinoma CT26 cells were purchased from Haixing Biosciences Co., Ltd (Jiangsu, P. R. China), and cultured in complete RPMI-1640 medium supplemented with 10% FBS and 1% Penicillin / Streptomycin in a cell incubator (37 °C in 95% air and 5% CO2 atmosphere). Human breast cancer MCF-7 cells, Human cervical carcinoma HeLa cells and Human embryonic kidney 293T cells were obtained from the China Center for Type Culture Collection (CCTCC). MCF-7 and HeLa cells were cultured in DMEM medium containing 10% FBS and 1% Penicillin / Streptomycin and then cultured in a cell incubator (37 °C in 95% air and 5% CO2 atmosphere).
(§3) The cytotoxicity of rhein, DCA, the mixture of rhein and DCA (R + D) and Rhein-DCA conjugate was evaluated on HeLa, MCF-7, CT26, 4T1 and 293T cell lines by MTT assay. Cells were seeded in 96-well plates at a density of 3 × 10^3 cells per well in the corresponding complete culture medium and cultured for 24 h. Then cells were incubated with 200 μL fresh medium containing the respective desired concentrations of rhein, DCA, R + D (with the concentrations being 100, 66.7, 44.4, 29.6, 19.8, 13.2, 8.8, 5.9, 3.9, 2.6, 1.7 and 1.2 μM, respectively) and Rhein-DCA conjugate (with the concentrations being 29.6, 19.8, 13.2, 8.8, 5.9, 3.9, 2.6, 1.7, 1.2, 0.8, 0.5 and 0.3 μM, respectively). After 72 h of incubation, 20 μL of MTT solution (5 mg/mL) was added to each well and the plates were cultured for another 4 h. The medium was carefully removed, and 110 μL of DMSO was added into per well to dissolve the formazan. The absorption densities at 590 nm were recorded with microplate reader. The quoted IC50 values were presented as the mean ± standard deviation.

HeLa cells = assay: MTT cytotoxicity assay; format: cell-based; settings: Homo sapiens
Experimental: as §1, §2, §3

4T1 cells [2] = assay: MTT cytotoxicity assay; format: cell-based; settings: Mus musculus, read-out: IC50 4T1
Experimental: as §1, §2, §3

MCF-7 cells = assay: MTT cytotoxicity assay; format: cell-based; settings: Homo sapiens, read-out: IC50 MCF-7
Experimental: as §1, §2, §3

[3] = 72 h treatment, MTT, mean ± S.D., n = 3
[4] = 72 h treatment, MTT, mean ± S.D., n = 3, read-out: IC50 HeLa
[5] = 4T1, 72 h treatment, MTT, mean ± S.D., n = 3
[6] = MCF7, 72 h treatment, MTT, mean ± S.D., n = 3

| Compound | intracellular ATP amount (4T1 cells [1]) | IC50 (CT26 cells) [µM] | IC50 (HeLa cells; 72 h, read-out: IC50 HeLa) [µM] | IC50 (4T1 cells [2]; 4T1, 72 h) [µM] | IC50 (MCF-7 cells; MCF7, 72 h) [µM] | IC50 (CT26 cells; [3]) [µM] | IC50 (HeLa cells; [4]) [µM] | IC50 (4T1 cells [2]; [5]) [µM] | IC50 (MCF-7 cells; [6]) [µM] |
| --- | --- | --- | --- | --- | --- | --- | --- | --- | --- |
| O=C(O)C(Cl)Cl [DCA, Dichloroacetate] | slight increase | > 100 | > 100 | > 100 | > 100 | – | – | – | – |
| O=C(O)c1cc(O)c2c(c1)C(=O)c1cccc(O)c1C2=O [Rhein, 4,5-dihydroxyanthraquinone-2-carboxylic acid] | decrease | – | – | – | – | 42.1 ± 3.3 | 68.3 ± 5.1 | 41.2 ± 1 | 79.9 ± 2.3 |
| O=C(OCCOC(=O)C(Cl)Cl)c1cc(O)c2c(c1)C(=O)c1cccc(O)c1C2=O [Rhein-DCA] | significant decrease | – | – | – | – | 2.7 ± 0.1 | 6.7 | 1.7 | 3.9 |
